Experimental data published in ChEMBL document CHEMBL5149981, “Carboxylesterase Notum Is a Druggable Target to Modulate Wnt Signaling” (J Med Chem, 2021).

Assays:
[1] = molecular target: T1, Palmitoleoyl-protein carboxylesterase NOTUM (Homo sapiens, UniProt Q6P988)
T1 sequence (Q6P988 whole entry): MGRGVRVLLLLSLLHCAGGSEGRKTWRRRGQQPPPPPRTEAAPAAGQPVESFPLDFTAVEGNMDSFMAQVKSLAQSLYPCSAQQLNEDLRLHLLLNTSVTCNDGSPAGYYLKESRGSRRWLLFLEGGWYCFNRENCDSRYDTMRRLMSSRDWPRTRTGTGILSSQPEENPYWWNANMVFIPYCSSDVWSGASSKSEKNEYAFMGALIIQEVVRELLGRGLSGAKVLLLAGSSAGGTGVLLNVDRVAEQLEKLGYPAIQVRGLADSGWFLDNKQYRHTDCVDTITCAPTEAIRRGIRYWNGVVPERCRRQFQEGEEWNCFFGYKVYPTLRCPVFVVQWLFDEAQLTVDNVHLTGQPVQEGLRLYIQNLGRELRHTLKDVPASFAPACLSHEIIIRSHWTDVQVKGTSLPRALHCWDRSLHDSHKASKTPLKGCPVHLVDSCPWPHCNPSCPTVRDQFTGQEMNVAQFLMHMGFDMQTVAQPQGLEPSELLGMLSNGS
Description: Inhibition of C-terminal His-V5 tagged human Notum expressed in human HEK293F cells harbouring TCF/LEF luciferase reporter gene assessed as activation of Wnt signaling using WNT3A as substrate by Steady-Glo luciferase assay

[2] = molecular target: T1, Palmitoleoyl-protein carboxylesterase NOTUM; remark: listed apart in the source
Description: Inhibition of human Notum using OPTS substrate by fluorescence based assay

[3] = molecular target: T1, Palmitoleoyl-protein carboxylesterase NOTUM; remark: listed apart in the source
Description: Inhibition of human Notum using OPTS substrate incubated for 1 hr by fluorescence based assay

| Compound | EC50 [1] | IC50 [2] | IC50 [3] |
| --- | --- | --- | --- |
| Cc1sc2ncnc(SCC(=O)O)c2c1Cl | 0.157 µM | 0.002 µM |  |
| Cc1ccccc1OCC(=O)Nc1cccnc1 |  |  | 33 µM |
| CC(=O)NCCc1c[nH]c2ccc(O)cc12 [ACETYLSEROTONIN] |  | 93.6 µM |  |
